Measurements reported in patent US12655116B2, “Substituted isophthalic acid diamides” (Bayer Aktiengesellschaft, priority 2020, dated 2026).

Legend:
AVEFA [1] = test: Post-emergence herbicidal action against AVEFA; format: in vivo, Avena fatua; conditions: visual assessment about 3 weeks after treatment, 100% = plants have died, 0% = like control plants
Outline: (§1)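 A WP or EC formulation diluted in water with 0.2% wetting agent was sprayed at 600 to 800 l/ha onto one-leaf-stage plants grown in sandy loam. About 3 weeks later, action was rated visually in percent, 100% being dead plants.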

ABUTH [2] = test: Pre-emergence herbicidal action against ABUTH; format: in vivo, Abutilon theophrasti
Outline: (§2)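 Greenhouse pots of sandy loam held seeds covered with soil, onto which the compound was applied before emergence. An aqueous suspension or emulsion of WP or EC was used at 600 to 800 l/ha with 0.2% wetting agent. Percent damage was judged visually at 3 weeks.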

ALOMY [3] = test: Pre-emergence herbicidal action against ALOMY; format: in vivo, Alopecurus myosuroides; conditions: pre-emergence
Outline: as §2

ECHCG [4] = test: Post-emergence herbicidal action against ECHCG; format: in vivo, Echinochloa crus-galli
Outline: as §1

STEME [5] = test: Post-emergence herbicidal action against STEME; format: in vivo, Stellaria media
Outline: as §1

MATIN [6] = test: Pre-emergence herbicidal action against MATIN; format: in vivo, Matricaria inodora
Outline: as §2

SETVI [7] = test: Pre-emergence herbicidal action against SETVI; format: in vivo, Setaria viridis
Outline: as §2

DIGSA [8] = test: Pre-emergence herbicidal action against DIGSA; format: in vivo, Digitaria sanguinalis
Outline: as §2

VIOTR [9] = test: Post-emergence herbicidal action against VIOTR; format: in vivo, Viola tricolor
Outline: as §1

VERPE [10] = test: Pre-emergence herbicidal action against VERPE; format: in vivo, Veronica persica
Outline: as §2

ECHCG [11] = test: Pre-emergence herbicidal action against ECHCG; format: in vivo, Echinochloa crus-galli
Outline: as §2

POLCO = test: Post-emergence herbicidal action against POLCO; format: in vivo, Polygonum convolvulus; conditions: dosage 20 g/ha
Outline: as §1

AMARE [12] = test: Pre-emergence herbicidal action against AMARE; format: in vivo, Amaranthus retroflexus
Outline: as §2

LOLRI = test: Post-emergence herbicidal action against LOLRI; format: in vivo, Lolium rigidum; conditions: dosage 20 g/ha
Outline: as §1

VIOTR [13] = test: Pre-emergence herbicidal action against VIOTR; format: in vivo, Viola tricolor
Outline: as §2

SETVI [14] = test: Post-emergence herbicidal action against SETVI; format: in vivo, Setaria viridis
Outline: as §1

HORMU [15] = test: Post-emergence herbicidal action against HORMU; format: in vivo, Hordeum murinum
Outline: as §1

VERPE [16] = test: Post-emergence herbicidal action against VERPE; format: in vivo, Veronica persica
Outline: as §1

ABUTH [17] = test: Post-emergence herbicidal action against ABUTH; format: in vivo, Abutilon theophrasti; conditions: visual assessment about 3 weeks after treatment vs untreated controls
Outline: as §1

AMARE [18] = test: Post-emergence herbicidal action against AMARE; format: in vivo, Amaranthus retroflexus; conditions: visual assessment about 3 weeks after treatment, 100% = plants have died, 0% = like control plants
Outline: as §1

PHBPU = test: Post-emergence herbicidal action against PHBPU; format: in vivo, Pharbitis purpurea; conditions: dosage 20 g/ha
Outline: as §1

DIGSA [19] = test: Post-emergence herbicidal action against DIGSA; format: in vivo, Digitaria sanguinalis
Outline: as §1

MATIN [20] = test: Post-emergence herbicidal action against MATIN; format: in vivo, Matricaria inodora
Outline: as §1

ALOMY [21] = test: Post-emergence herbicidal action against ALOMY; format: in vivo, Alopecurus myosuroides; conditions: visual assessment about 3 weeks after treatment vs untreated controls
Outline: as §1

STEME [22] = test: Pre-emergence herbicidal action against STEME; format: in vivo, Stellaria media
Outline: as §2

CYPES [23] = test: Pre-emergence herbicidal action against CYPES; format: in vivo; conditions: Cyperus esculentus, 504 h
Source text: Seeds of monocotyledonous and dicotyledonous weed plants and crop plants are laid out in sandy loam soil in wood-fiber pots and covered with soil. The compounds of the invention, formulated in the form of wettable powders (WP) or as emulsion concentrates (EC), are then applied to the surface of the covering soil in the form of an aqueous suspension or emulsion at a water application rate equivalent to 600 to 800 l/ha, with addition of 0.2% wetting agent. After the treatment, the pots are placed in a greenhouse and kept under good growth conditions for the trial plants. The damage to the test plants is scored visually after a test period of 3 weeks by comparison with untreated controls (herbicidal activity in percent (%): 100% activity=the plants have died, 0% activity=like control plants). […] The tables below illustrate, in an illustrative manner, the post-emergence herbicidal action of the compounds of the invention, the herbicidal activity being stated in percent.

AVEFA [24] = test: Pre-emergence herbicidal action against AVEFA; format: in vivo, Avena fatua; conditions: Avena fatua, pre-emergence, 504 h; 320 g/ha; scored visually after 3 weeks, 100% = plants have died, 0% = like control plants
Outline: as §2

CYPES [25] = test: Post-emergence herbicidal action against CYPES; format: in vivo, Cyperus esculentus; conditions: 80 g/ha, visual assessment about 3 weeks after treatment, 100% = plants have died, 0% = like control plants
Experimental: Seeds of monocotyledonous and dicotyledonous weed and crop plants are laid out in sandy loam soil in wood-fiber pots, covered with soil and cultivated in a greenhouse under good growth conditions. 2 to 3 weeks after sowing, the test plants are treated at the one-leaf stage. The compounds of the invention, formulated in the form of wettable powders (WP) or as emulsion concentrates (EC), are then sprayed onto the green parts of the plants in the form of an aqueous suspension or emulsion at a water application rate equivalent to 600 to 800 l/ha, with addition of 0.2% wetting agent. After the test plants have been left to stand in the greenhouse under optimal growth conditions for about 3 weeks, the action of the preparations is assessed visually in comparison to untreated controls (herbicidal action in percent (%): 100% activity=the plants have died, 0% activity=like control plants). […] The tables below illustrate, in an illustrative manner, the post-emergence herbicidal action of the compounds of the invention, the herbicidal activity being stated in percent.

HORMU [26] = test: Pre-emergence herbicidal action against HORMU; format: in vivo, Hordeum murinum; conditions: Hordeum murinum, 504 h; 320 g/ha, pre-emergence
Outline: as §2

[27] = 80 g/ha, scored visually after 3 weeks vs untreated controls (100% = plants have died, 0% = like control plants)

CNC(=O)c1c(C(F)F)ccc(C(=O)Nc2nnco2)c1Cl [Example 5-122]
Post-emergence action at 20 g/ha against AVEFA in % (AVEFA [1]; 20 g/ha): 80% | Pre-emergence action against ABUTH (herbicidal activity) (ABUTH [2]; [27]): 100% | Pre-emergence action against ABUTH (herbicidal activity in percent) (ABUTH [2]; dosage 20 g/ha, scored visually after 3 weeks vs untreated controls, 100% = plants have died, 0% = like control plants): 90% | Pre-emergence action against ALOMY (herbicidal activity) (ALOMY [3]; [27]): 80% | Post-emergence action against ECHCG in % (ECHCG [4]; dosage 5 g/ha): 90% | Post-emergence action against ECHCG in % (ECHCG [4]; dosage 20 g/ha): 90% | Post-emergence action against STEME in % (STEME [5]; 20 g/ha): 100% | Post-emergence action against STEME in % (STEME [5]; dosage 5 g/ha): 90% | Pre-emergence action against MATIN in % (MATIN [6]; dosage 80 g/ha): 90% | Pre-emergence action against SETVI in % (SETVI [7]; dosage 80 g/ha): 100% | Pre-emergence action against DIGSA in % (DIGSA [8]; dosage 20 g/ha): 100% | Pre-emergence action against DIGSA in % (DIGSA [8]; dosage 80 g/ha): 100% | Post-emergence action against VIOTR in % (VIOTR [9]; 5 g/ha): 90% | Post-emergence action against VIOTR in % (VIOTR [9]; 20 g/ha): 90% | Pre-emergence action against VERPE in % (VERPE [10]; dosage 80 g/ha): 100% | Pre-emergence action against ECHCG in % (ECHCG [11]; 20 g/ha): 80% | Pre-emergence action against ECHCG in % (ECHCG [11]; 80 g/ha): 100% | Post-emergence action against POLCO in % (POLCO): 80% | Pre-emergence action against AMARE in % (AMARE [12]; 20 g/ha, scored visually after 3 weeks vs untreated controls, 100% = plants have died, 0% = like control plants): 80% | Pre-emergence action against AMARE in % (AMARE [12]; [27]): 100% | Post-emergence action against LOLRI in % (LOLRI): 80% | Pre-emergence action against VIOTR in % (VIOTR [13]; dosage 20 g/ha): 80% | Pre-emergence action against VIOTR in % (VIOTR [13]; dosage 80 g/ha): 100% | Post-emergence action against SETVI in % (SETVI [14]; dosage 5 g/ha): 80% | Post-emergence action against SETVI in % (SETVI [14]; dosage 20 g/ha): 90% | Post-emergence action against HORMU in % (HORMU [15]; dosage 20 g/ha): 80% | Post-emergence action against VERPE in % (VERPE [16]; 20 g/ha): 80% | Post-emergence action against ABUTH in % (ABUTH [17]; dosage 5 g/ha): 80% | Post-emergence action against ABUTH in % (ABUTH [17]; dosage 20 g/ha): 90% | Post-emergence action at 20 g/ha against AMARE in % (AMARE [18]; 20 g/ha): 90% | Post-emergence action against PHBPU in % (PHBPU): 90% | Post-emergence action against DIGSA in % (DIGSA [19]; 5 g/ha): 90% | Post-emergence action against DIGSA (DIGSA [19]; 20 g/ha): 90% | Post-emergence action against MATIN in % (MATIN [20]; dosage 5 g/ha): 80% | Post-emergence action against MATIN in % (MATIN [20]; dosage 20 g/ha): 80% | Post-emergence action against ALOMY in % (ALOMY [21]; dosage 20 g/ha): 80% | Pre-emergence action against STEME in % (STEME [22]; dosage 20 g/ha): 90% | Pre-emergence action against STEME in % (STEME [22]; dosage 80 g/ha): 90%

Cc1nnc(NC(=O)c2ccc(C(F)(F)F)c(C(N)=O)c2Cl)o1 [Example 6-253]
pest or weed control at 80 g/ha (AVEFA [1]; Avena fatua, 504 h, 80 g/ha): 80% | pest or weed control at 80 g/ha (ABUTH [2]; Abutilon theophrasti, 504 h, 80 g/ha, scored visually after 3 weeks vs untreated controls (100% = plants have died, 0% = like control plants)): 90% | pest or weed control at 320 g/ha (ABUTH [2]; Abutilon theophrasti, 504 h, Dosage: 320 g/ha, scored visually after 3 weeks, 100% = plants have died, 0% = like control plants): 100% | pest or weed control at 320 g/ha (ALOMY [3]; Alopecurus myosuroides, 504 h, 320 g/ha, scored visually after 3 weeks, 100% = plants have died, 0% = like control plants): 90% | pest or weed control at 80 g/ha (ECHCG [4]; Echinochloa crus-galli, 504 h, dosage 80 g/ha): 90% | pest or weed control at 80 g/ha (STEME [5]; Stellaria media, 504 h, 80 g/ha): 90% | pest or weed control at 20 g/ha (CYPES [23]; 20 g/ha, scored visually after 3 weeks, 100% = plants have died, 0% = like control plants): 80% | pest or weed control at 80 g/ha (CYPES [23]; 80 g/ha, scored visually after 3 weeks, 100% = plants have died, 0% = like control plants): 90% | pest or weed control at 320 g/ha (CYPES [23]; 320 g/ha): 100% | pest or weed control at 320 g/ha (MATIN [6]; Tripleurospermum inodorum, 504 h, dosage 320 g/ha): 100% | pest or weed control at 320 g/ha (SETVI [7]; Setaria viridis, 504 h, dosage 320 g/ha): 100% | pest or weed control at 20 g/ha (VIOTR [9]; Viola tricolor, 504 h, 20 g/ha): 80% | pest or weed control at 80 g/ha (VIOTR [9]; Viola tricolor, 504 h, 80 g/ha): 80% | pest or weed control at 320 g/ha (VERPE [10]; Veronica persica, 504 h, dosage 320 g/ha): 100% | pest or weed control at 320 g/ha (ECHCG [11]; Echinochloa crus-galli, 504 h, 320 g/ha): 100% | pest or weed control at 80 g/ha (AMARE [12]; Amaranthus retroflexus, 504 h, 80 g/ha, scored visually after 3 weeks vs untreated controls, 100% = plants have died, 0% = like control plants): 80% | pest or weed control at 320 g/ha (AMARE [12]; Amaranthus retroflexus, 504 h, 320 g/ha, scored visually after 3 weeks, 100% = plants have died, 0% = like control plants): 90% | pest or weed control at 320 g/ha (VIOTR [13]; Viola tricolor, 504 h, dosage 320 g/ha): 100% | pest or weed control at 320 g/ha (AVEFA [24]): 90% | pest or weed control at 20 g/ha (SETVI [14]; Setaria viridis, 504 h, dosage 20 g/ha): 90% | pest or weed control at 80 g/ha (SETVI [14]; Setaria viridis, 504 h, dosage 80 g/ha): 100% | pest or weed control at 80 g/ha (HORMU [15]; Hordeum murinum, 504 h, dosage 80 g/ha): 90% | pest or weed control at 20 g/ha (VERPE [16]; Veronica persica, 504 h, 20 g/ha): 80% | pest or weed control at 80 g/ha (VERPE [16]; Veronica persica, 504 h, 80 g/ha): 90% | pest or weed control at 5 g/ha (ABUTH [17]; Abutilon theophrasti, 504 h, dosage 5 g/ha): 100% | pest or weed control at 20 g/ha (ABUTH [17]; Abutilon theophrasti, 504 h, dosage 20 g/ha): 100% | pest or weed control at 80 g/ha (ABUTH [17]; Abutilon theophrasti, 504 h, dosage 80 g/ha): 100% | Post-emergence action at 80 g/ha against CYPES in % (CYPES [25]): 80% | pest or weed control at 80 g/ha (AMARE [18]; Amaranthus retroflexus, 504 h, 80 g/ha): 100% | pest or weed control at 320 g/ha (HORMU [26]): 90% | pest or weed control at 80 g/ha (ALOMY [21]; Alopecurus myosuroides, 504 h, dosage 80 g/ha): 80% | pest or weed control at 320 g/ha (STEME [22]; Stellaria media, 504 h, dosage 320 g/ha): 100%
